Test results as given in patent publication US10392412B2, “Platinum anticancer agents” (THE REGENTS OF THE UNIVERSITY OF CALIFORNIA, priority 2015, dated 2019).
Entries after “also recorded” stand apart in the source; their conditions may differ. Like-named read-outs stand apart in the source and are kept apart here.

Key:
SNF539 cells = assay: Cytotoxicity CellTiter-Glo; type: cell-based, human
U87MG cells = assay: Cytotoxicity CellTiter-Glo; type: cell-based, human
U251 cells [1] = assay: Cytotoxicity CellTiter-Glo; type: cell-based, human
SAOS-2 cells = assay: Cytotoxicity CellTiter-Glo; type: cell-based, human; details: SAOS-2, Osteosarcoma
A204 cells = assay: Cytotoxicity CellTiter-Glo; type: cell-based, human; details: A204, Rhabdomyosarcoma
A673 cells = assay: Cytotoxicity CellTiter-Glo; type: cell-based, human
Kelly cells = assay: Cytotoxicity CellTiter-Glo; type: cell-based, human
SHEP cells = assay: Cytotoxicity CellTiter-Glo; type: cell-based, human
A2780-CP cells = assay: Cytotoxicity CellTiter-Glo; type: cell-based, human; details: read-out: IC50 (50% growth inhibition), Ovary, 72 hours
CAKL-1 cells = details: CAKL-1, Renal
Source text: (§1) The methods that were used by the DTP were described on the DTP website: (https://dtp.nci.nih.gov/discovery_development/nci-60/methodology.htm).

CCRF-CEM cells = details: Leukemia
Source text: as §1

DU-145 cells = details: DU-145, Prostate
Source text: as §1

EKVX cells = details: Non-Small Cell Lung
Source text: as §1

HCT-15 cells = details: HCT-15, Colon
Source text: as §1

HOP-62 cells = details: HOP-62, Non-Small Cell Lung
Source text: as §1

HOP-92 cells = details: HOP-92, Non-Small Cell Lung
Source text: as §1

HS 578T cells = details: Breast
Source text: as §1

K-562 cells = details: K-562, Leukemia
Source text: as §1

KM12 cells = details: KM12, Colon
Source text: as §1

LOX IMVI cells = details: Melanoma
Source text: as §1

MALME-3M cells = details: Melanoma
Source text: as §1

MDA-MB-231/ATCC cells = details: Breast
Source text: as §1

MDA-MB-468 cells = details: MDA-MB-468, Breast
Source text: as §1

NCI-ADR-RES cells = details: Ovarian
Source text: as §1

NCI-H460 cells = details: NCI-H460, Non-Small Cell Lung
Source text: as §1

OVCAR-5 cells = details: OVCAR-5, Ovarian
Source text: as §1

OVCAR-8 cells = details: OVCAR-8, Ovarian
Source text: as §1

PC-3 cells = details: PC-3, Prostate
Source text: as §1

SF-295 cells = details: SF-295, Central Nervous System
Source text: as §1

SF-539 cells = details: SF-539, Central Nervous System
Source text: as §1

SK-OV-3 cells = details: SK-OV-3, Ovarian
Source text: as §1

SN12C cells = details: Renal
Source text: as §1

SNB-19 cells = details: SNB-19, Central Nervous System
Source text: as §1

SW-620 cells = details: SW-620, Colon
Source text: as §1

U251 cells [2] = details: U251, Central Nervous System
Source text: as §1

UACC-62 cells = details: UACC-62, Melanoma
Source text: as §1

[3] = system: SK-N-DZ neuroblastoma xenografts; assay: SK-N-DZ neuroblastoma xenograft in nu/nu mice; type: in vivo, mouse; details: for tumor volume / tumor growth: SKNDZ neuroblastoma xenograft, 5 mg/kg i.v. once a week for 4 weeks
Experimental: (§2) The xenograft studies were performed by subcutaneous injection of SK-N-DZ (neuroblastoma, 30×10^6 cells/animal) and RMS13 (rhabdomyosarcoma, 20×10^6 cells/animal) in right flank of the male Charles River Laboratories nu/nu mice (7-8 weeks old, weight ˜20 g). Mice were treated by intravenous tail vein injection once a week for 4 weeks. The tumor sizes and body weights were monitored twice a week. Tumor volumes were calculated according to the following formula: volume=height×[…]×length×0.5236.

[4] = system: RMS13 rhabdomyosarcoma xenografts; assay: RMS13 rhabdomyosarcoma xenograft in nu/nu mice; type: in vivo, mouse; details: for tumor volume / tumor growth: RMS13 rhabdomyosarcoma xenograft, 5 mg/kg i.v. once a week for 4 weeks
Experimental: as §2

HL-60(TB) cells = details: Leukemia
[5] = read-out: IC50 (50% growth inhibition), 72 hours
[6] = read-out: IC50 (50% growth inhibition), Neuroblastoma, 72 hours

## [Pt(DMSO)methotrexate(Cl)] [SM-69]
SNF539 cells; read-out: IC50 (50% growth inhibition), SNF539, Brain, 72 hours
  IC50: 1.2 ± 1.1 µM
SNF539 cells; read-out: IC50 ± S.D. (50% growth inhibition), SF539, Brain - High grade, + 1 mM Folic Acid
  IC50: 13.4 ± 4.8 µM
U87MG cells; read-out: IC50 (50% growth inhibition), Brain, 72 hours
  IC50: 2.2 ± 2 µM
U87MG cells; read-out: IC50 ± S.D. (50% growth inhibition), Brain - Low grade, + 1 mM Folic Acid
  IC50: 26.2 ± 21.5 µM
U87MG cells; read-out: IC50 ± S.D. (50% growth inhibition), Brain - Low grade, two independent experiments
  IC50: 3.7 ± 4.5 µM
U251 cells [1]; read-out: IC50 (50% growth inhibition), U251, Brain, 72 hours
  IC50: 4 ± 4.5 µM
U251 cells [1]; read-out: IC50 ± S.D. (50% growth inhibition), U251, Brain - High grade, + 1 mM Folic Acid
  IC50: 6.1 ± 0.29 µM
U251 cells [1]; read-out: IC50 ± S.D. (50% growth inhibition), U251, Brain - High grade, two independent experiments
  IC50: 0.25 ± 0.02 µM
SAOS-2 cells
  GI50: 10.4 ± 9.4 µM
SAOS-2 cells; [5]
  IC50: 10.4 ± 9.4 µM
A204 cells
  GI50: 3.9 ± 3 µM
A204 cells; [5]
  IC50: 3.9 ± 3 µM
A673 cells; A673, Ewing's sarcoma
  GI50: 0.3 ± 0.3 µM
A673 cells; read-out: IC50 (50% growth inhibition), A673, Ewing's Sarcoma, 72 hours
  IC50: 0.3 ± 0.3 µM
Kelly cells; Neuroblastoma
  GI50: 3.7 ± 2.7 µM
Kelly cells; [6]
  IC50: 3.7 ± 2.7 µM
SHEP cells; Neuroblastoma
  GI50: 2.7 ± 2.3 µM
SHEP cells; [6]
  IC50: 2.7 ± 2.3 µM
A2780-CP cells
  IC50: 8.6 ± 2.1 µM
CAKL-1 cells
  Log10GI50: −5.23 M
CCRF-CEM cells
  Log10GI50: −5.39 M
DU-145 cells
  Log10GI50: −5.18 M
EKVX cells
  Log10GI50: −4.16 M
HCT-15 cells
  Log10GI50: −5.04 M
HOP-62 cells
  Log10GI50: −4.26 M
HOP-92 cells
  Log10GI50: −4.00 M
HS 578T cells
  Log10GI50: −4.00 M
K-562 cells
  Log10GI50: −5.79 M
KM12 cells
  Log10GI50: −5.17 M
LOX IMVI cells
  Log10GI50: −5.77 M
MALME-3M cells
  Log10GI50: −4.71 M
MDA-MB-231/ATCC cells
  Log10GI50: −4.00 M
MDA-MB-468 cells
  Log10GI50: −5.08 M
NCI-ADR-RES cells
  Log10GI50: −5.20 M
NCI-H460 cells
  Log10GI50: −5.34 M
OVCAR-5 cells
  Log10GI50: −4.61 M
OVCAR-8 cells
  Log10GI50: −5.36 M
PC-3 cells
  Log10GI50: −5.35 M
SF-295 cells
  Log10GI50: −5.46 M
SF-539 cells
  Log10GI50: −5.19 M
SK-OV-3 cells
  Log10GI50: −4.00 M
SN12C cells
  Log10GI50: −5.29 M
SNB-19 cells
  Log10GI50: −4.00 M
SW-620 cells
  Log10GI50: −5.48 M
U251 cells [2]
  Log10GI50: −5.43 M
UACC-62 cells
  Log10GI50: −4.90 M
[3]; 5 mg/kg
  tumor volume / tumor growth: significantly different compared with other groups; also recorded: significantly lower compared with SM-70
[3]; listed as AT-69, 5 mg/kg
  tumor volume / tumor growth: significantly reduces NB tumor growth; also recorded: inhibited tumor growth; also recorded: more potent than cisplatin
[3]; SKNDZ xenograft model, 5 mpk, listed as AT-69, 5 mg/kg
  survival: significant increase; also recorded: significantly increase survival; also recorded: significant difference in survival; also recorded: increase survival rate
[4]; 5 mg/kg
  tumor volume / tumor growth: significantly different compared with other groups; also recorded: significantly lower compared with SM-70
[4]; listed as AT-69, 5 mg/kg
  tumor volume / tumor growth: significantly reduces RMS tumor growth; also recorded: inhibited tumor growth; also recorded: more potent than cisplatin
[4]; RMS13 xenograft model, 5 mpk, listed as AT-69, 5 mg/kg
  survival: significantly increase survival; also recorded: increase survival rate; also recorded: significantly increased rate of survival
HL-60(TB) cells
  Log10GI50: −5.46 M
